Results: patent US6599893B2, “Cephalosporin antibiotics and prodrugs thereof” (Essential Therapeutics, Inc., priority 2000, dated 2003)
Values after ≈ are worked out from the molar mass of the structure shown. Read-outs that look alike come from different tables or passages of the source.

Tests used:
[1] = test system: Staphylococcus aureus ATCC 29213 (MSSA); assay: Broth microdilution MIC, S. aureus ATCC 29213; assay type: cell-based; details: Staphylococcus aureus ATCC 29213 (MSSA)
Summary of the method: (§1)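 Broth microdilution per NCCLS M7-A3 (1993) guidelines. MIC taken as the lowest compound concentration preventing bacterial growth.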

[2] = test system: Staphylococcus aureus 76 (MRSA, β-lactamase producing); assay: Broth microdilution MIC, S. aureus 76; assay type: cell-based; details: Staphylococcus aureus 76 (MRSA, β-lactamase producing)
Summary of the method: as §1

[3] = test system: Enterococcus faecalis ATCC 29212; assay: Broth microdilution MIC, E. faecalis ATCC 29212; assay type: cell-based; details: Enterococcus faecalis ATCC 29212
Summary of the method: as §1

[4] = Human serum binding by ultrafiltration; assay type: in vitro ADME
Method: Binding of several representative compounds of this invention in pooled human serum was determined using ultrafiltration. Compounds were incubated in serum for 10 minutes at 37° C. in a shaking water bath. Serum ultrafiltrate was accomplished by centrifugation (Amicon Centrifree) for 20 minutes at 25° C. Compound content in the ultrafiltrate was quantified by HPLC. An ultrafilrate obtained by following the same procedure with no added compound was used as a standard.

S. aureus strain Smith = assay: Experimental infection of mice, ED50; assay type: in vivo, Swiss-Webster mice; details: 50% efficacious dose, S. aureus Smith, mice challenged intraperitoneally, compound subcutaneously at 0 and 2 h, total dose, 72 h survival
Method: Staphylococcus aureus strain Smith (ATCC 13709, penicillin-susceptible) or strain 76 (methicillin-resistant) was cultured overnight at 37° C. in brain-heart infusion broth (BHIB). The following morning, a portion of the culture was transferred to fresh BHIB and incubated for an additional 4-5 hours at 37° C. The cells were harvested by centrifugation, washed twice with PBS, and adjusted to the desired inoculum amount. The cell suspension was mixed with an equal volume of sterile 14% hog-gastric mucin (Comber K. R.; Osborne C. D.; Sutherland R.: Comparative effects of amoxicillin and ampicillin in the treatment of experimental mouse infections. Antimicrobial Agents and Chemotherapy 7(2):179-185, 1975). The inoculum was kept in an ice bath until used (preferably in less than one hour).
Male Swiss-Webster mice were challenged intraperitoneally with 0.5 mL of a bacterial suspension of S. aureus strain Smith (LD50). Test compounds were administered subcutaneously in 0.1 mL volumes immediately after inoculation and 2 hours later. […] The total dose associated with 50% survival (ED50) was determined using the probit method (Pasiello, A. P., J. M. Essigmann, and G. N. Wogan.: Rapid and accurate determination of median lethal dose (LD50) and its error with a small computer. J Toxicol. Environ. Health. 3:797-809, 1977).

[5] = test system: Staphylococcus aureus COL (MRSA, non-β-lactamase producing); assay: Broth microdilution MIC, S. aureus COL; assay type: cell-based; details: Staphylococcus aureus COL (MRSA, non-β-lactamase producing)
Summary of the method: as §1

[6] = test system: Staphylococcus aureus Smith (MSSA); assay: Broth microdilution MIC, S. aureus Smith; assay type: cell-based; details: Staphylococcus aureus Smith (MSSA)
Method: Compounds were evaluated for antimicrobial activity against a panel of bacterial strains using a broth microdilution assay performed as recommended by the NCCLS (NCCLS (National Committee for Clinical Laboratory Standards). 1993. Methods for dilution antimicrobial susceptibility tests for bacteria that grow aerobically. NCCLS Document M7-A3, 1993. In: NCCLS Antimicrobial Susceptibility Testing, 3rd Ed.)
The minimum inhibitory concentration (MIC) is defined as the lowest concentration of a compound that prevents the growth of the bacteria.

[7] = Human serum binding estimated from serum effect on MIC (HSB*); assay type: in vitro ADME
From the text: An estimate of human serum binding (HSB*) was obtained for some compounds using the MIC values against S. aureus ATCC 29213 determined in growth medium (GM) and in a 1:1 mixture of growth medium and human serum (GM+HS):
HSB*=(MICGM+HS−MICGM)/MICGM 100%

[8] = test system: Enterococcus faecium ATCC 35667; assay: Broth microdilution MIC, E. faecium ATCC 35667; assay type: cell-based; details: Enterococcus faecium ATCC 35667
Summary of the method: as §1

[9] = pooled human serum, ultrafiltration, 10 minutes at 37° C.
[10] = MIC against S. aureus ATCC 29213 in growth medium vs 1:1 growth medium and human serum

| MIC ([1]; read-out: MIC S. a. 29213) | MIC ([2]; read-out: MIC S. a. 76) | MIC ([3]; ATCC29212, read-out: MIC E. f. 29212) | HSB, human serum binding [4, 9] | MIC ([5]; read-out: MIC S. a. COL) | MIC ([6]; read-out: MIC S. a. Smith) | HSB*, human serum binding calculated using serum effect on MIC [7, 10] | MIC ([8]; ATCC35667, read-out: MIC E. f. 35667) | SMILES | MIC S. a. 29213 [1] | MIC S. a. 76 [2] | MIC E. f. 29212 [3] | HSB, human serum binding [4] | ED50, mg/kg (95% C.I.) (S. aureus strain Smith) | MIC S. a. COL [5] | MIC S. a. Smith [6] | HSB*, human serum binding calculated using serum effect on MIC [7] | MIC E. f. 35667 [8] |
| --- | --- | --- | --- | --- | --- | --- | --- | --- | --- | --- | --- | --- | --- | --- | --- | --- | --- |
| – | – | – | – | – | – | – | – | NC(=O)CSCc1cnccc1SC1=C(C(=O)O)N2C(=O)[C@@H](NC(=O)/C(=N\O)c3nc(N)sc3Cl)[C@H]2SC1 [Compound 22] | 0.5 µg/mL (≈ 0.812 µM) | 4 µg/mL (≈ 6.49 µM) | 0.5 µg/mL (≈ 0.812 µM) | 94% | 1.15 (0.7-1.6) mg/kg | 4 µg/mL (≈ 6.49 µM) | 0.25 µg/mL (≈ 0.406 µM) | 88% | 1 µg/mL (≈ 1.62 µM) |
| 0.5 µg/mL (≈ 0.86 µM) | 2 µg/mL (≈ 3.44 µM) | 1 µg/mL (≈ 1.72 µM) | 65% | 2 µg/mL (≈ 3.44 µM) | 0.25 µg/mL (≈ 0.43 µM) | 75% | 4 µg/mL (≈ 6.88 µM) | Nc1nnc(SC2=C(C(=O)O)N3C(=O)[C@@H](NC(=O)C(=NOCCF)c4nc(N)sc4Cl)C3SC2)s1 (stereo partly drawn) [Compound 42, (7R)-7-[2-(2-Amino-5-chlorothiazol-4-yl)-2-(2-fluoroethoxyimino)-acetylamino]-3-(5-amino-[1,3,4]thiadiazol-2-ylsulfanyl)-8-oxo-5-thia-1-aza-bicyclo[4.2.0]oct-2-ene-2-carboxylic acid] | – | – | – | – | – | – | – | – | – |
| – | – | – | 84% | – | – | 67% | – | NCCSCc1cnccc1SC1=C(C(=O)O)N2C(=O)[C@@H](NC(=O)/C(=N\O)c3nc(N)sc3Cl)[C@H]2SC1 [RWJ 54428, reference compound] | 0.25 µg/mL (≈ 0.415 µM) | 1 µg/mL (≈ 1.66 µM) | 0.06 µg/mL (≈ 0.0996 µM) | – | 1.0 (0.7-1.6) mg/kg | 0.5 µg/mL (≈ 0.83 µM) | 0.125 µg/mL (≈ 0.208 µM) | – | 0.25 µg/mL (≈ 0.415 µM) |
